The record followed here is patent US20090176888A1, “COMPOSITION COMPRISING PHYTOSPHINGOSINE OR DERIVATIVE THEREOF” (KOREA INSTITUTE OF RADIOLOGICAL & MEDICAL SCIENCES, priority 2003, published 2009).

Data set [1] relates to human lung cancer cells (NCI-H460). The data set can be described thus: Apoptosis test (Sub G1, propidium iodide, flow cytometry). It counts as cell-based. On the procedure:
Cancer cells as used in the experiment were human lung cancer cells (NCI-H460, Korean Cell Line Bank), human breast cancer cells (MDA-MB-231, American Type Culture Collection (ATCC)), human uterine cervical cancer cells (HeLa, Korean Cell Line Bank), and blood cancer cells (Jurkat, ATCC). These cancer cells were cultured in RPMI 1640 media containing 10% FBS, penicillin, and streptomycin (GIBCO BRL).
The apoptosis tests were carried out at human lung cancer cells, breast cancer cells, uterine cervical cancer cells, and blood cancer cells as follows:
Phytosphingosine or a derivative thereof was dissolved in DMSO. Samples of the resultant solution of different concentration levels (1, 2, 5, 10, 15, 20 μg/ml) were prepared. According to the following treatment schedule, phytosphingosine treated cancer cells were cultured, washed with PBS (phosphate buffered saline), and fixed with 70% ethanol. The fixed cells were again washed with PBS, suspended in PBS, and 1 mg/ml of RNase was added thereto. Then, DNA was stained with 50 μg/ml of propidium iodide fluorescent dye and the change in the Sub G1 was analyzed by flow cytometry (Becton DICKINSON). The Sub G1, a marker of apoptotic cell death, means DNA distribution lower than that in the G1 phase of cell cycle.
(1-1) In order to determine an anticancer effect of phytosphingosine, 5 ml of 10 μg/ml of phytosphingosine was added to respective dishes containing lung cancer cells, breast cancer cells, uterine cervical cancer cells, and blood cancer cells.
(1-2) In order to examine a correlation of an anticancer effect with the phytosphingosine concentration and post-treatment culture time, each 5 ml of 2, 5, 10, and 15 μg/ml of phytosphingosine was added to respective human uterine cervical cancer cell-containing dishes and human breast cancer cell-containing dishes. In addition, each 5 ml of 5, 10, 15, and 20 μg/ml of phytosphingosine was added to respective human lung cancer cell-containing dishes, and each 5 ml of 1, 5, 10, and 20 μg/ml of phytosphingosine was added to respective human blood cancer cell-containing dishes.
(1-3) An anticancer effect of phytosphingosine derivatives was determined in the same manner as mentioned in (1-1) and (1-2) except using 5 μg/ml of C4PS, C6PS, C8PS, and C12PS.
For orientation: Flow cytometry measures light scatter and fluorescence of single cells or particles in a stream.

Data set [2] relates to human uterine cervical cancer cells (NCI-H460 cells). The data set is described as follows: In vivo animal test, tumor volume in transplanted nude mice (phytosphingosine alone). Conditions: FIG. 11. How it is done: Nude mice (body weight: about 20 g) were randomized into 2 groups: a first group is for a control group and a second group is for treatment with phytosphingosine. The femoral region of the nude mice was transplanted with human uterine cervical cancer cells ([…]). Then, tumor volume was allowed to reach a level of […]. A 50 mg/kg solution of phytosphingosine in an olive oil was orally administered to the second group for one week on a daily basis.

The subject of a further data set is human lung cancer cells. The data set is described as follows: Colony formation test in combination with radiation. It counts as cell-based. Conditions: FIG. 12. How it is done: Colony formation tests were carried out in human lung cancer cells, breast cancer cells, and uterine cervical cancer cells as follows:
Respective sphingosine, phytosphingosine, C6PS, and C8PS were dissolved ethanol to produce specimens. About 600 cells (for each cancer) were plated in a dish with a diameter of 60 mm and incubated in a CO2 incubator at 37° C. for a day. Then, the cancer cells were treated with the specimens in combination with radiation and were continuously cultured. When suitable colonies were formed, the cancer cells were fixed with a fixing solution (methanol/acetic acid=3:1) and stained with trypan blue. Then, the number of the colonies was counted and the results were evaluated in a comparative manner.

A further data set concerns human blood cancer cells. The data set is described as follows: Apoptosis test with or without radiation. Conditions: 5 μg/ml in combination with radiation. In kind it is cell-based. On the procedure:
(§1) (1) Each 5 ml of 20 μg/ml of phytosphingosine and derivatives thereof were added to human lung cancer cell-containing dishes. Some cells were cultured without radiation and others were cultured with radiation with dose of 4 Gy. This apoptosis test was carried out in the same manner in the Experiment 1. Specimens used in this apoptosis test are as follows:
(§2) Control (Cont), IR, PS, PS+IR, C4PS, C4PS+IR, C6PS, C6PS+IR, C8PS, C8PS+IR, C12PS, C12PS+IR.
(§3) (2) Apoptosis tests for human blood cancer cells, uterine cervical cancer cells, and breast cancer cells were carried out in the same manner as in the above (1) except using 5 μg/ml of phytosphingosine and derivatives thereof.

In data set [3] the test system is human breast cancer cells. The data set is described as follows: Apoptosis test with or without radiation. Conditions: 5 μg/ml in combination with radiation, FIG. 17. It counts as cell-based. On the procedure: as §1, §2, §3
For data set [4], the system named is human uterine cervical cancer cells. The data set can be described thus: Apoptosis test with or without radiation. In kind it is cell-based. The conditions noted are these: 5 μg/ml in combination with radiation, FIG. 17. How it is done: as §1, §2, §3
The next data set can be described thus: Acute oral toxicity test. The conditions noted are these: rat, in vivo, rats. How it is done: Royal Gist-Brocades N.V. (Netherlands) was asked to perform tests for acute oral toxicity and dermal irritation, and Ames tests of phytosphingosine and derivatives thereof.
In the acute oral toxicity test, the LD50 (the […]) value amounted to 2,000 mg/kg or more in rats.

A value given as a limit tells only on which side of the number the result lay.

In general, LD50 refers to the dose expected to kill half of the subjects tested. A lower LD50 goes with a more toxic substance. Turning to `CCCCCCCCCCCCCC[C@@H](O)[C@@H](O)[C@@H](N)CO` [phytosphingosine], the apoptosis in data set [1] (10 μg/ml or more, culture of 6 hours or more, FIG. 5) is recorded as 50%; in data set [1] (10 μg/ml, at 3-6 hours after treatment), at least 50%. For the same molecule, the apoptotic rate in data set [1] (10 μg/ml phytosphingosine, test (1-1), FIG. 1) was at least 50%. Moreover, the “inhibitory effect on tumor growth compared to control group” value in data set [2] (50 mg/kg/day oral for one week, at the 40th day) is on record as “potent inhibitory effect on tumor growth”. Further, the tumor size change result in data set [2] (50 mg/kg/day oral in olive oil for one week, versus control group) is reported as “did not show changes for 20 days”. Further, the “reduction of tumor growth, concurrent treatment vs radiation, sphingosine or PS alone” value with human lung cancer cells (PS in combination with radiation) is at least 30%. For the same molecule, the “sensitizer enhancement ratio (SER)” value in the data set with human lung cancer cells (in combination with radiation) is 1.21. The “increase of apoptotic rate, concurrent treatment vs PS or radiation alone” value is on record as at least 20% in the data set with human blood cancer cells (FIG. 15) and at least 15% in the data set on human blood cancer cells (after 18 hours, FIG. 16). Besides, the “enhancement of radiosensitizing effect” value in data set [3] and in data set [4] was “excellent” in each case. Moreover, the LD50 in “Acute oral toxicity test” is at least 2000 mg/kg.
